Test results from ChEMBL document CHEMBL3407488, “Synthesis and L-type calcium channel blocking activity of new chiral oxadiazolothiazinones” (Eur J Med Chem, 2015).

What was measured:
Cavia porcellus [1] = organism: Cavia porcellus; assay: Antagonist activity at Cav1.2a in K+-depolarized guinea pig aortic strips assessed as inhibition of calcium-induced contraction at 5 x 10^-8 M relative to control; type: tissue-based; parameters: scale not given: the % may be the effect or the level left; settings: Aorta
Right cardiac atrium [2] = assay: Negative chronotropic activity in guinea pig […] atrium assessed as decrease in atrial rate on spontaneous beating at 5 x 10^-8 M relative to control; type: functional, Cavia porcellus; parameters: scale not given: the % may be the effect or the level left
Cav1.2b [3] = assay: Antagonist activity at Cav1.2b in K+-depolarized guinea pig ileum longitudinal smooth muscle assessed as inhibition of calcium-induced contraction at 10^-4 M relative to control; type: tissue-based, Cavia porcellus; settings: read-out: Activity
Left cardiac atrium [4] = assay: Negative ionotropic activity in guinea pig left atrium assessed as decrease in developed tension driven at 1 Hz; type: functional, tissue-based; settings: Cavia porcellus
Left cardiac atrium [5] = assay: Negative ionotropic activity in guinea pig left atrium assessed as decrease in developed tension driven at 1 Hz at 5 x 10^-7 M relative to control; type: functional, Cavia porcellus; parameters: scale not given: the % may be the effect or the level left
Left cardiac atrium [6] = assay: Negative ionotropic activity in guinea pig left atrium assessed as decrease in developed tension driven at 1 Hz at 5 x 10^-6 M relative to control; type: functional, Cavia porcellus; parameters: scale not given: the % may be the effect or the level left
Right cardiac atrium [7] = assay: Negative chronotropic activity in guinea pig […] atrium assessed as decrease in atrial rate on spontaneous beating at 10^-5 M relative to control; type: functional, Cavia porcellus; parameters: scale not given: the % may be the effect or the level left
Cavia porcellus [8] = organism: Cavia porcellus; assay: Antagonist activity at Cav1.2a in K+-depolarized guinea pig aortic strips assessed as inhibition of calcium-induced contraction at 10^-4 M relative to control; type: tissue-based; parameters: scale not given: the % may be the effect or the level left; settings: Aorta
Left cardiac atrium [9] = assay: Ratio of diltiazem EC50 to compound EC50 for negative ionotropic activity in guinea pig left atrium assessed as decrease in developed tension driven at 1 Hz; type: functional, Cavia porcellus
[10] = Antagonist activity at Cav1.2b in K+-depolarized guinea pig ileum longitudinal smooth muscle assessed as inhibition of calcium-induced contraction; type: tissue-based; settings: Cavia porcellus
Left cardiac atrium [11] = assay: Negative ionotropic activity in guinea pig left atrium assessed as decrease in developed tension driven at 1 Hz at 10^-6 M relative to control; type: functional, Cavia porcellus; parameters: scale not given: the % may be the effect or the level left
Right cardiac atrium [12] = assay: Negative chronotropic activity in guinea pig […] atrium assessed as decrease in atrial rate on spontaneous beating at 5 x 10^-5 M relative to control; type: functional, Cavia porcellus; parameters: scale not given: the % may be the effect or the level left
Right cardiac atrium [13] = assay: Negative chronotropic activity in guinea pig […] atrium assessed as decrease in atrial rate on spontaneous beating at 10^-6 M relative to control; type: functional, Cavia porcellus; parameters: scale not given: the % may be the effect or the level left
Cav1.2b [14] = assay: Antagonist activity at Cav1.2b in K+-depolarized guinea pig ileum longitudinal smooth muscle assessed as inhibition of calcium-induced contraction at 10^-6 M relative to control; type: tissue-based, Cavia porcellus; settings: read-out: Activity
Right cardiac atrium [15] = assay: Negative chronotropic activity in guinea pig […] atrium assessed as decrease in atrial rate on spontaneous beating; type: functional; settings: Cavia porcellus
[16] = Antagonist activity at Cav1.2a in K+-depolarized guinea pig aortic strips assessed as inhibition of calcium-induced contraction; type: tissue-based; settings: Cavia porcellus, Aorta
[17] = Selectivity ratio of IC50 for Cav1.2a in K+-depolarized guinea pig aortic strips to IC50 for Cav1.2b in K+-depolarized guinea pig ileum longitudinal smooth muscle; parameters: species or system Cavia porcellus, Muscle tissue
Left cardiac atrium [18] = assay: Negative ionotropic activity in guinea pig left atrium assessed as decrease in developed tension driven at 1 Hz at 10^-5 M relative to control; type: functional, Cavia porcellus; parameters: scale not given: the % may be the effect or the level left
Right cardiac atrium [19] = assay: Negative chronotropic activity in guinea pig […] atrium assessed as decrease in atrial rate on spontaneous beating at 10^-4 M relative to control; type: functional, Cavia porcellus; parameters: scale not given: the % may be the effect or the level left
[20] = Selectivity ratio of IC50 for Cav1.2b in K+-depolarized guinea pig ileum longitudinal smooth muscle to IC50 for Cav1.2a in K+-depolarized guinea pig aortic strips; parameters: species or system Cavia porcellus, Muscle tissue
Cavia porcellus [21] = organism: Cavia porcellus; assay: Antagonist activity at Cav1.2a in K+-depolarized guinea pig aortic strips assessed as inhibition of calcium-induced contraction at 5 x 10^-5 M relative to control; type: tissue-based; parameters: scale not given: the % may be the effect or the level left; settings: Aorta
Cav1.2b [22] = assay: Antagonist activity at Cav1.2b in K+-depolarized guinea pig ileum longitudinal smooth muscle assessed as inhibition of calcium-induced contraction at 5 x 10^-5 M relative to control; type: tissue-based, Cavia porcellus; settings: read-out: Activity
Right cardiac atrium [23] = assay: Negative chronotropic activity in guinea pig […] atrium assessed as decrease in atrial rate on spontaneous beating at 5 x 10^-6 M relative to control; type: functional, Cavia porcellus; parameters: scale not given: the % may be the effect or the level left
[24] = Selectivity ratio of IC50 for Cav1.2b in K+-depolarized guinea pig ileum longitudinal smooth muscle to EC50 for negative ionotropic activity in guinea pig left atrium; parameters: species or system Cavia porcellus, Muscle tissue
Cav1.2b [25] = assay: Antagonist activity at Cav1.2b in K+-depolarized guinea pig ileum longitudinal smooth muscle assessed as inhibition of calcium-induced contraction at 5 x 10^-6 M relative to control; type: tissue-based, Cavia porcellus; settings: read-out: Activity
Right cardiac atrium [26] = assay: Negative chronotropic activity in guinea pig […] atrium assessed as decrease in atrial rate on spontaneous beating at 5 x 10^-7 M relative to control; type: functional, Cavia porcellus; parameters: scale not given: the % may be the effect or the level left

Compound | inhibition at 100 µM (Cav1.2b [3]) [%] | EC50 (Left cardiac atrium [4]) [nM] | Activity (Cavia porcellus [8]) [%] | IC50 [10] [nM] | Activity (Left cardiac atrium [11]) [%] | Activity (Right cardiac atrium [19]) [%] | other results
O=c1onc2n1-c1ccccc1S[C@@]2(OCC(F)(F)F)c1ccc(Br)cc1 | 47 | 11 | – | – | – | – | Activity (Cavia porcellus [1]): 28%; Activity (Right cardiac atrium [2]): 25%; Activity (Left cardiac atrium [5]): 52%
CC1=CSC(OCC(F)(F)F)(c2ccc(Br)cc2)c2noc(=O)n21 (racemic) | 73 | 22 | 28 | 25900 | – | – | Activity (Left cardiac atrium [6]): 76%; Activity (Right cardiac atrium [7]): 4%; Ratio EC50 (Left cardiac atrium [9]): 36
CCO[C@@]1(c2ccc(Br)cc2)SC=C(C)n2c1noc2=O | – | – | 7 | – | 58 | – | Activity (Right cardiac atrium [12]): 15%
COc1ccc([C@@H]2Sc3ccccc3N(CCN(C)C)C(=O)[C@@H]2OC(C)=O)cc1 [DILTIAZEM] | – | 790 | 88 | 110 | – | – | Activity (Right cardiac atrium [13]): 94%; inhibition at 1 µM (Cav1.2b [14]): 98%; EC30 (Right cardiac atrium [15]): 70 nM; IC50 [16]: 2600 nM; Ratio IC50 [17]: 24; Activity (Left cardiac atrium [18]): 78%
CCOC1(c2ccc(Br)cc2)Sc2ccccc2-n2c1noc2=O (racemic) | 87 | 13 | 4 | 8320 | 81 | 7 | IC50 [16]: 13 nM; Ratio IC50 [20]: 640
CCO[C@]1(c2ccc(Br)cc2)SC=C(C)n2c1noc2=O | – | 70 | 11 | – | 77 | – | Activity (Right cardiac atrium [7]): 16%
CCO[C@@]1(c2ccc(Br)cc2)Sc2ccccc2-n2c1noc2=O | – | – | – | 5190 | – | – | Activity (Left cardiac atrium [6]): 25%; Activity (Cavia porcellus [21]): 2%; inhibition at 50 µM (Cav1.2b [22]): 60%; Activity (Right cardiac atrium [23]): 10%
O=c1onc2n1-c1ccccc1SC2(OCC(F)(F)F)c1ccc(Br)cc1 (racemic) | 54 | 6 | 21 | 11800 | 75 | 7 | Selectivity ratio [24]: 1965
CCOC1(c2ccc(Br)cc2)SC=C(C)n2c1noc2=O (racemic) | 3 | 40 | 19 | – | 78 | 5 | Ratio EC50 (Left cardiac atrium [9]): 20
CCO[C@]1(c2ccc(Br)cc2)Sc2ccccc2-n2c1noc2=O | – | 9.3 | – | 20 | – | – | inhibition at 5 µM (Cav1.2b [25]): 78%; Activity (Cavia porcellus [21]): 8%; Activity (Left cardiac atrium [5]): 64%; Activity (Right cardiac atrium [26]): 20%
O=c1onc2n1-c1ccccc1S[C@]2(OCC(F)(F)F)c1ccc(Br)cc1 | 54 | 9.8 | 1 | 4580 | 77 | – | Activity (Right cardiac atrium [7]): 24%
CC1=CS[C@@](OCC(F)(F)F)(c2ccc(Br)cc2)c2noc(=O)n21 | 85 | 34 | 12 | 19000 | 82 | 16 | –
CC1=CS[C@](OCC(F)(F)F)(c2ccc(Br)cc2)c2noc(=O)n21 | 98 | 26 | 9 | 12200 | – | – | Activity (Right cardiac atrium [12]): 40%; Activity (Left cardiac atrium [6]): 82%
